Results reported in ChEMBL document CHEMBL4406802, “Human disorders associated with inflammation and the evolving role of natural products to overcome” (Eur J Med Chem, 2019).
Values belong to the molecule of their own block, whether it stands above or below them.

Assays:
RAW264.7 [1] = assay: Antiinflammatory activity in mouse RAW264.7 cells assessed as inhibition of LPS-induced nitric oxide production at […] after 24 hrs by Griess reagent based assay relative to control; type: functional; set-up: dose or concentration left out as unconfirmed; settings: RAW264.7, 24 h
RAW264.7 [2] = assay: Antiinflammatory activity in mouse RAW264.7 cells assessed as inhibition of LPS-induced nitric oxide production at 25 uM relative to control; type: functional
[3] = biological target: T1, Prostaglandin G/H synthase 1 (Ovis aries, UniProt P05979); assay: Inhibition of ovine COX1
T1 sequence (P05979 whole entry): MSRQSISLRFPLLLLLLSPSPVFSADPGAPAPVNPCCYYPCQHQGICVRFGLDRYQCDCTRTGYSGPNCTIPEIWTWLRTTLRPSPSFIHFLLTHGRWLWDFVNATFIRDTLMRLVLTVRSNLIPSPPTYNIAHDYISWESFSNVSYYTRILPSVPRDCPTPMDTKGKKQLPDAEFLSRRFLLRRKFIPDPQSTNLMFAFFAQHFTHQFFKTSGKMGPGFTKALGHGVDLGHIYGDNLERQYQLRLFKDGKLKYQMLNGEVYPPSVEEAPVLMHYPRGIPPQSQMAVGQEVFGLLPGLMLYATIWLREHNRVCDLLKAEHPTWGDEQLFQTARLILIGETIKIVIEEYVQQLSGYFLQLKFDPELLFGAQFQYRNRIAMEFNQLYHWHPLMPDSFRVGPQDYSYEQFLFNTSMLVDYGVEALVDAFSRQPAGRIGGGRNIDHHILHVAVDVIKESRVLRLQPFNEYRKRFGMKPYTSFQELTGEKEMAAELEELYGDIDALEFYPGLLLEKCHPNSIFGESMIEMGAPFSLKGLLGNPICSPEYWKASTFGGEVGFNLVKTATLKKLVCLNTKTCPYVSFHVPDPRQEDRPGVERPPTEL

[4] = Inhibition of TNFalpha-induced NFkappaB (unknown origin) activation expressed in mouse NIH-3T3 cells […] followed by TNFalpha addition measured after 6 hrs by luciferase reporter gene assay; type: cell-based; settings: NIH3T3
BV-2 = assay: Antiinflammatory activity in mouse BV2 cells assessed as inhibition of LPS-induced nitric oxide production at 10 uM relative to control; type: functional
RAW264.7 [5] = assay: Antiinflammatory activity against mouse RAW264.7 cells assessed as inhibition of LPS induced iNOS at 30 uM preincubated for 1 hr followed by LPS stimulation measured after 18 hrs relative to control; type: functional
[6] = biological target: T2, Prostaglandin G/H synthase 2 (Homo sapiens, UniProt P35354); assay: Inhibition of COX2 (unknown origin)
T2 sequence (P35354 whole entry): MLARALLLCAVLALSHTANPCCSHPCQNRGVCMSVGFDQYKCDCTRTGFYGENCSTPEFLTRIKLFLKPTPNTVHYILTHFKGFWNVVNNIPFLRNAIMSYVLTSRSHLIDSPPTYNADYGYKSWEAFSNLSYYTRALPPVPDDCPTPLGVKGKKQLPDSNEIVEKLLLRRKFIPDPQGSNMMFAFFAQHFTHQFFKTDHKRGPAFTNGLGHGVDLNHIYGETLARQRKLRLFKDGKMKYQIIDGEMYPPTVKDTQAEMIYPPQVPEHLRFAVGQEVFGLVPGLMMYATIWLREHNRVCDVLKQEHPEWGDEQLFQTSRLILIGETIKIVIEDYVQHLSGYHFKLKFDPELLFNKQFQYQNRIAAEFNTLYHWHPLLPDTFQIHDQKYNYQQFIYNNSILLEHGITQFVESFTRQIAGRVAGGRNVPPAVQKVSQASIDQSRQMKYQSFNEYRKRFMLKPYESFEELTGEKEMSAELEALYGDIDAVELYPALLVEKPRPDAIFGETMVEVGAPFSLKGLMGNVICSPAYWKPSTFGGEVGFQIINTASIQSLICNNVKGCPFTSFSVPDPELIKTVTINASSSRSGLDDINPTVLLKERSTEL

RAW264.7 [7] = assay: Cytotoxicity against mouse RAW264.7 cells assessed as cell viability after 24 hrs by MTT assay relative to control; type: functional
RAW264.7 [8] = assay: Antiinflammatory activity in mouse RAW264.7 cells assessed as inhibition of LPS-induced nitric oxide production after 24 hrs by Griess reagent based assay relative to control; type: functional, cell-based; settings: RAW264.7, 24 h
[9] = biological target: Nitric oxide synthase, inducible (Homo sapiens, UniProt P35228); assay: Inhibition of iNOS (unknown origin) at 20 uM relative to control
Nitric oxide synthase, inducible, sequence (P35228 whole entry): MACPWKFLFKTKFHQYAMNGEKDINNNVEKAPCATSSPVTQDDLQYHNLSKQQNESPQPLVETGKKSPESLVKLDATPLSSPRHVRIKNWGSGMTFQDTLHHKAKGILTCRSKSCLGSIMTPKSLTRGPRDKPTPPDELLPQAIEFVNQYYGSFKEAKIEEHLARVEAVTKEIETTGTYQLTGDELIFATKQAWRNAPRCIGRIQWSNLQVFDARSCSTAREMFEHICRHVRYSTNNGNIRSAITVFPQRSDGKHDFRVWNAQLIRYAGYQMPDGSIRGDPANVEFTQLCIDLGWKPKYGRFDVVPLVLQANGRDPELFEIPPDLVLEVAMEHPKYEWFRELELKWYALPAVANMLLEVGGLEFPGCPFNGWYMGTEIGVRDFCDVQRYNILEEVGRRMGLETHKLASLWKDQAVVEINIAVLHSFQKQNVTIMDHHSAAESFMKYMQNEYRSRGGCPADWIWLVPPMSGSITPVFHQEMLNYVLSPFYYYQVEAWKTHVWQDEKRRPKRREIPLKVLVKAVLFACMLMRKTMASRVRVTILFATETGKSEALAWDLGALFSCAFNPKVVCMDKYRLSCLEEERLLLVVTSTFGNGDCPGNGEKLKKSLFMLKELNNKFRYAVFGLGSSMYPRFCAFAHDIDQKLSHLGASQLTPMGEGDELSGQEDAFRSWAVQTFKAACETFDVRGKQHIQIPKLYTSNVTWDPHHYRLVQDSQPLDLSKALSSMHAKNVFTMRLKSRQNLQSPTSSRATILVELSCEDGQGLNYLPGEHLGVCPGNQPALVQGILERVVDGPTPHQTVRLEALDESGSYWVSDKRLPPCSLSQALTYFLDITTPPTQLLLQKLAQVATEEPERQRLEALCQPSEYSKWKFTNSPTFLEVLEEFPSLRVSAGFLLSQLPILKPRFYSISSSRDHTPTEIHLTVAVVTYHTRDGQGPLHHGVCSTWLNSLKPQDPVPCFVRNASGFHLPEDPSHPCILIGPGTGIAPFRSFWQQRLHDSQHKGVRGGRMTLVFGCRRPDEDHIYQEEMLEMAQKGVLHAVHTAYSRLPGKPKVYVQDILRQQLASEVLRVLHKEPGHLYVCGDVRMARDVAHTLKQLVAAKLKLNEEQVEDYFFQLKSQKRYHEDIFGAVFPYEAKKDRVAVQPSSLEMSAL

Compound: CC(C)=CCOc1cc(O)c2c(=O)c3cc(OCC=C(C)C)c(O)cc3oc2c1
inhibition (RAW264.7 [1]): 84.2%

Compound: C=C1C(=O)OC2CC(C)=C(C(C)CCCOC(C)=O)C(OC(C)=O)C12 (stereo not given)
inhibition at 25 µM (RAW264.7 [2]): 68.9%

IC50 [3]: 4.96 µM
Compound: O=C(/C=C/c1ccc(O)c(O)c1)OC1CC(O)(C(=O)O)CC(OC(=O)/C=C/c2ccc(O)c(O)c2)C1O (stereo not given)

IC50 [4]: 22.5 µM
Compound: C=C[C@]1(C)C[C@H](OC(=O)C(=C)CO)[C@H]2C(=C)C(=O)O[C@@H]2[C@H]1C(=C)CO

Compound: COc1cc(CC2C(=O)OCC2C(O)c2ccc(OC)c(OC)c2)ccc1O (stereo not given)
inhibition at 10 µM (BV-2): 63.3%

Compound: CC1=C2C3=CC[C@@H]4[C@@]5(C)CC[C@H](O[C@@H]6OC[C@@H](O)[C@H](O)[C@H]6O)C(C)(C)[C@@H]5CC[C@@]4(C)[C@]3(C)CC[C@@]2(C(=O)O[C@@H]2O[C@H](CO)[C@@H](O)[C@H](O)[C@H]2O)CC[C@H]1C
inhibition at 30 µM (RAW264.7 [5]): 64.9%

Compound: COc1cc(/C=C/C(=O)CC(=O)/C=C/c2ccc(O)c(OC)c2)ccc1O [CURCUMIN]
inhibition at 10 µM (BV-2): 53%

Compound: CC1CCC(O)[C@@]2(C)C[C@H]3OC(=O)[C@H](C)[C@H]3C=C12 (stereo not given in full)
inhibition at 25 µM (RAW264.7 [2]): 14.6%

IC50 [6]: 650 µM
Compound: CC(C)[C@@H]1CC[C@]2(C)[C@@H]3C(C=C4[C@@H]5CC(C)(C)CC[C@]5(C)CC[C@]42C)OC(=O)CC[C@]31C (stereo not given in full)

IC50 [3]: 5.87 µM
Compound: O=C(/C=C/c1ccc(O)c(O)c1)OC1CC(O)(C(=O)O)CC(O)C1OC(=O)/C=C/c1ccc(O)c(O)c1 (stereo not given)

IC50 [4]: > 50 µM
Compound: C=C(CO)C(=O)O[C@H]1C[C@@H]2[C@@H]([C@@H](O)[C@@H]1C(=C)C(=O)OC)[C@H](C=O)CC[C@H]2O

IC50 (RAW264.7 [8]): 18.8 µM
Compound: C[C@@H]1O[C@@H](O[C@H]2[C@H](O[C@H]3[C@H](O[C@H]4CC[C@@]5(C)[C@@H](CC[C@]6(C)[C@@H]5CC=C5[C@@H]7C[C@]8(C)C[C@@H](OC8=O)[C@]7(C)CC[C@]56C)[C@@]4(C)CO)O[C@H](C(=O)O)[C@@H](O)[C@@H]3O)OC[C@@H](O)[C@@H]2O)[C@H](O)[C@H](O)[C@H]1O
Activity (RAW264.7 [7]): 97.6%

Compound: CC1=C2C3=CC[C@@H]4[C@@]5(C)CC[C@H](O[C@@H]6OC[C@@H](O)[C@H](O)[C@H]6O[C@@H]6O[C@H](CO)[C@@H](O)[C@H](O)[C@H]6O)C(C)(C)[C@@H]5CC[C@@]4(C)[C@]3(C)CC[C@@]2(C(=O)O[C@@H]2O[C@H](CO)[C@@H](O)[C@H](O)[C@H]2O)CC[C@H]1C
inhibition at 30 µM (RAW264.7 [5]): 75%

IC50 [3]: 2.09 µM
Compound: O=C(/C=C/c1ccc(O)c(O)c1)OC(C(=O)O)C(OC(=O)/C=C/c1ccc(O)c(O)c1)C(OC(=O)/C=C/c1ccc(O)c(O)c1)C(OC(=O)/C=C/c1ccc(O)c(O)c1)C(=O)O (stereo not given)

Compound: O=c1c2ccc(O)c(O)c2oc2cc(O)cc(O)c12
inhibition (RAW264.7 [1]): 78.9%

Compound: C=C1C(=O)O[C@@H]2C[C@@]3(C)C(=C(C)C(O)CC3O)C[C@H]12 (stereo not given in full)
inhibition at 25 µM (RAW264.7 [2]): 23.8%

Compound: COc1cc(C)c2c(=O)c3c(O)cc(OC)cc3oc2c1 [LICHEXANTHONE]
inhibition (RAW264.7 [1]): 32%

inhibition [9]: 49.1%
Compound: COc1cc(C2OCC3C(c4ccc(O)c(OC)c4)OCC23)ccc1O (stereo not given)

Compound: C=C(CO)C(=O)O[C@H]1C/C(C)=C/CC/C(CO)=C/[C@H]2OC(=O)C(=C)[C@H]12
IC50 [4]: 8.6 µM
